Assays:
urinary retention = conditions: randomized placebo controlled trials; cited from earlier work
[1] = system: primary rat detrusor muscle cultures; type: cell-based; conditions: 1 μg/ml, bladder smooth muscle cells, data not shown
Protocol: Tissue culture. Primary bladder muscle cultures were derived from newborn Sprague-Daley rats (Charles River; Wilmington, Mass.). The bladders were harvested, minced and added to 3 ml dissociation solution containing 0.5 mg/ml collagenase, 0.5 mg/ml elastase, 2 μg/ml DNAse (Worthington, Lakewood, N.J.) and 1 mg/ml soybean trypsin inhibitor (Gibco, Carlsbad, Calif.). The tissue was triturated at 15 minute intervals for 45 minutes using fire polished pasteur pipets. The cell solution was filtered through a 40 μm cell strainer and spun at 1000 rpm for 5 minutes. […] The cell number was determined and cells were plated at a density of 25,000 cells/cm2 in poly-L-lysine coated (P-6282, Sigma) 12-well plates (#3513, Corning, Corning, N.Y.) for biochemical and flow cytometry studies and on plastic 8-well chamber slides (#354108, BD Bioscience, San Jose, Calif.) for immunohistochemistry or TUNEL staining. […]
Apoptosis detection. […] Following treatment with rMIF, cells were analyzed using a kit (PF032, Calbiochem, San. Diego, Calif.) to separate apoptotic and necrotic cells on flow cytometry. […] Cells were analyzed using a Becton Dickenson FACS caliber flow cytometer with collection and analysis of data performed using Becton Dickinson CELLQuest software. TUNEL staining was detected using a kit (Roche) with DAB microscopy of cells grown 5-7 days in 8-well chamber slides. […]

[2] = system: incontinence due to detrusor over activity with DHIC; conditions: cited from earlier work
[3] = system: bladder function, men with BPH; conditions: cited from earlier work
[4] = system: MIF protein release from rat bladder muscle culture cells; experiment: MIF ELISA of supernatants from rat bladder muscle cultures; type: cell-based; conditions: TNF-α 50 ng/ml for 24 hours, 3 separate cultures
Protocol: Tissue culture. Primary bladder muscle cultures were derived from newborn Sprague-Daley rats (Charles River; Wilmington, Mass.). The bladders were harvested, minced and added to 3 ml dissociation solution containing 0.5 mg/ml collagenase, 0.5 mg/ml elastase, 2 μg/ml DNAse (Worthington, Lakewood, N.J.) and 1 mg/ml soybean trypsin inhibitor (Gibco, Carlsbad, Calif.). The tissue was triturated at 15 minute intervals for 45 minutes using fire polished pasteur pipets. The cell solution was filtered through a 40 μm cell strainer and spun at 1000 rpm for 5 minutes. The supernatant was aspirated and cells resuspended in DMEM-F/12 medium containing 1% FBS, 1% N-2 supplement and 1% Penicillin/Streptomycin (Gibco). The cell number was determined and cells were plated at a density of 25,000 cells/cm2 in poly-L-lysine coated (P-6282, Sigma) 12-well plates (#3513, Corning, Corning, N.Y.) for biochemical and flow cytometry studies and on plastic 8-well chamber slides (#354108, BD Bioscience, San Jose, Calif.) for immunohistochemistry or TUNEL staining. Cells were maintained at 37° C. and 5% CO2 in a humidified chamber. The presence of 1% FBS was required for the success of initial plating. […]
MIF ELISA. […] MIF concentrations were calculated by extrapolation from a quadratic standard curve using human rMIF (range: 0-12 ng/ml, sensitivity: 150 pg/ml).

[5] = system: post-void residual in ambulatory older women; conditions: estrogen users, 204 ambulatory women, mean age 79 years; cited from earlier work

Compound: CC(C[N+](C)(C)C)OC(N)=O (stereo not drawn) [Bethanechol chloride]
- clinically-relevant outcomes (urinary retention): does not improve clinically-relevant outcomes

Compound: C[C@@H]1C[C@@H]([C@H](O)CC2CC(=O)NC(=O)C2)C(=O)[C@@H](C)C1 [cyclohexamide]
- apoptosis or necrosis induced by cyclohexamide alone [1]: does not induce apoptosis or necrosis

Compound: CCN(CC)CC#CCOC(=O)C(O)(c1ccccc1)C1CCCCC1 (stereo not drawn) [oxybutynin]
- decrease in daily incontinence frequency ([2]; intention-to-treat, 64 subjects on immediate-release oxybutynin started at 2.5 mg and titrated): 68%
- evaluable subjects with no end-study leakage, impaired contractility ([2]; on oxybutynin, 9/19 subjects): 47%
- evaluable subjects with no end-study leakage, normal contractility ([2]; on oxybutynin, 25/35 subjects): 71%
- subjects with no incontinence episodes on the end-study bladder diary ([2]; subjects randomized to oxybutynin): 34/64

Compound: CC(C)[N+](C)(CCOC(=O)C1c2ccccc2Oc2ccccc21)C(C)C [propantheline]
- acute urinary retention [3]: 5/6

Compound: TNF-α
- increase in MIF protein levels detectable in the supernatant [4]: approximately 30%

Compound: estrogen
- mean PVR [5]: 39.3 mL

Source: patent US20080089884A1, “Compositions and methods for the modulation of detrusor activity” (priority 2006, published 2008)
